Results from the NIST ThermoML archive (doi:10.1021/acs.jced.8b00236).

Assay: mn = molality of the nth substance listed, in mol/kg
Settings: 75 kPa, Liquid; for viscosity: Capillary tube (Ostwald / Ubbelohde) method; for speed of sound: Frequency=3 MHz, Single path-length method; for mass density: Vibrating tube method

NCC(=O)O [2-aminoacetic acid] + O
Settings	mass density [kg/m3]	speed of sound [m/s]	viscosity [mPa·s]
288.15 K, m1 = 0.1393	1003.55	1474.2	1.166
288.15 K, m1 = 0.2791	1007.86	1482	1.185
288.15 K, m1 = 0.4196	1012.03	1489.7	1.205
288.15 K, m1 = 0.56	1016.03	1497.4	1.226
288.15 K, m1 = 0.7019	1019.92	1505	1.248
288.15 K, m1 = 0.8453	1023.68	1512.6	1.27
288.15 K, m1 = 0.9876	1027.24	1520.1	1.295
288.15 K, m1 = 1.132	1030.68	1527.5	1.318
293.15 K, m1 = 0.1393	1002.61	1490.2	1.025
293.15 K, m1 = 0.2791	1006.87	1497.7	1.044
293.15 K, m1 = 0.4196	1010.97	1505.2	1.064
293.15 K, m1 = 0.56	1014.91	1512.5	1.084
293.15 K, m1 = 0.7019	1018.74	1519.8	1.104
293.15 K, m1 = 0.8453	1022.45	1527	1.125
293.15 K, m1 = 0.9876	1025.96	1534	1.146
293.15 K, m1 = 1.132	1029.37	1541	1.166
298.15 K, m1 = 0.1393	1001.4	1504.1	0.912
298.15 K, m1 = 0.2791	1005.6	1511.4	0.929
298.15 K, m1 = 0.4196	1009.68	1518.7	0.946
298.15 K, m1 = 0.56	1013.59	1525.8	0.964
298.15 K, m1 = 0.7019	1017.38	1532.8	0.982
298.15 K, m1 = 0.8453	1021.05	1539.8	0.999
298.15 K, m1 = 0.9876	1024.54	1546.6	1.011
298.15 K, m1 = 1.132	1027.89	1553.3	1.026
303.15 K, m1 = 0.1393	999.949	1516.3	0.82
303.15 K, m1 = 0.2791	1004.11	1523.4	0.839
303.15 K, m1 = 0.4196	1008.15	1530.5	0.853
303.15 K, m1 = 0.56	1012.03	1537.5	0.869
303.15 K, m1 = 0.7019	1015.8	1544.3	0.885
303.15 K, m1 = 0.8453	1019.44	1551.2	0.901
303.15 K, m1 = 0.9876	1022.91	1557.8	0.913
303.15 K, m1 = 1.132	1026.27	1564.5	0.929
308.15 K, m1 = 0.1393	998.286	1526.7	0.734
308.15 K, m1 = 0.2791	1002.41	1533.6	0.752
308.15 K, m1 = 0.4196	1006.42	1540.5	0.772
308.15 K, m1 = 0.56	1010.28	1547.2	0.785
308.15 K, m1 = 0.7019	1014.04	1553.9	0.804
308.15 K, m1 = 0.8453	1017.7	1560.5	0.815
308.15 K, m1 = 0.9876	1021.16	1567	0.825
308.15 K, m1 = 1.132	1024.55	1573.4	0.839

NCCC(=O)O [3-aminopropanoic acid] + O
Settings	mass density [kg/m3]	speed of sound [m/s]	viscosity [mPa·s]
288.15 K, m1 = 0.1393	1003.45	1475.7	1.179
288.15 K, m1 = 0.2789	1007.7	1484.8	1.214
288.15 K, m1 = 0.4194	1011.88	1493.8	1.252
288.15 K, m1 = 0.5603	1015.98	1502.7	1.291
288.15 K, m1 = 0.7021	1020	1511.6	1.332
288.15 K, m1 = 0.8451	1023.96	1520.4	1.372
288.15 K, m1 = 0.9881	1027.81	1529	1.414
288.15 K, m1 = 1.132	1031.61	1537.5	1.46
293.15 K, m1 = 0.1393	1002.51	1491.8	1.033
293.15 K, m1 = 0.2789	1006.72	1500.8	1.065
293.15 K, m1 = 0.4194	1010.86	1509.7	1.099
293.15 K, m1 = 0.5603	1014.91	1518.5	1.134
293.15 K, m1 = 0.7021	1018.9	1527.2	1.174
293.15 K, m1 = 0.8451	1022.82	1535.9	1.216
293.15 K, m1 = 0.9881	1026.64	1544.4	1.259
293.15 K, m1 = 1.132	1030.4	1552.7	1.307
298.15 K, m1 = 0.1393	1001.3	1505.5	0.9201
298.15 K, m1 = 0.2789	1005.48	1514.3	0.9466
298.15 K, m1 = 0.4194	1009.59	1522.9	0.9744
298.15 K, m1 = 0.5603	1013.63	1531.4	0.9995
298.15 K, m1 = 0.7021	1017.6	1539.9	1.034
298.15 K, m1 = 0.8451	1021.51	1548.2	1.062
298.15 K, m1 = 0.9881	1025.34	1556.4	1.1
298.15 K, m1 = 1.132	1029.1	1564.5	1.146
303.15 K, m1 = 0.1393	999.877	1517.7	0.824
303.15 K, m1 = 0.2789	1004.02	1526.1	0.8427
303.15 K, m1 = 0.4194	1008.09	1534.5	0.8667
303.15 K, m1 = 0.5603	1012.08	1542.8	0.8942
303.15 K, m1 = 0.7021	1016	1550.9	0.9256
303.15 K, m1 = 0.8451	1019.86	1559	0.959
303.15 K, m1 = 0.9881	1023.63	1566.9	1.001
303.15 K, m1 = 1.132	1027.33	1574.7	1.042
308.15 K, m1 = 0.1393	998.23	1527.9	0.733
308.15 K, m1 = 0.2789	1002.34	1536	0.7526
308.15 K, m1 = 0.4194	1006.39	1544	0.7692
308.15 K, m1 = 0.5603	1010.35	1551.9	0.7923
308.15 K, m1 = 0.7021	1014.25	1559.7	0.8219
308.15 K, m1 = 0.8451	1018.1	1567.4	0.8509
308.15 K, m1 = 0.9881	1021.85	1574.9	0.8756
308.15 K, m1 = 1.132	1025.53	1582.3	0.9126
